Data taken from patent US20260226068A1, “IMIDAZOTRIAZINE IL-17A MODULATORS AND USES THEREOF” (DICE ALPHA, INC., priority 2023, published 2026).

How the values were obtained:
IL-17A/A = target: T1, IL-17A/A (Homo sapiens, UniProt Q16552); experiment: IL-17A/A HEK-Blue cell assay (SEAP reporter); assay type: cell-based; conditions: HEK-Blue IL-17A reporter cells, IL17A/A 5 ng/mL, 20 hours, SEAP read at A630; read-out: HEK-Blue IL17AA (IC50 for IL-17A/A inhibition)
T1 construct: purchased Genscript Z03228
T1 sequence (Q16552 24-155): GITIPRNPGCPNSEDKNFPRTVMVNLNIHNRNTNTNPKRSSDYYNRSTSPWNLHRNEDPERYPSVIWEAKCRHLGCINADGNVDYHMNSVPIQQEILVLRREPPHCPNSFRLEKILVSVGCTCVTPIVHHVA

IL-17A/F = target: T2, IL-17A/F (Homo sapiens, UniProt Q16552+Q96PD4); experiment: IL-17A/F HEK-Blue cell assay (SEAP reporter); assay type: cell-based; conditions: HEK-Blue IL-17A reporter cells, IL17A/F 5 ng/mL, 20 hours, SEAP read at A630; read-out: HEK-Blue IL17AF (IC50 for IL-17A/F inhibition)
T2 construct: purchased R&D Systems
T2 sequence (Q16552 24-155): T1 sequence (Q16552 24-155)
T2 sequence (Q96PD4 31-163): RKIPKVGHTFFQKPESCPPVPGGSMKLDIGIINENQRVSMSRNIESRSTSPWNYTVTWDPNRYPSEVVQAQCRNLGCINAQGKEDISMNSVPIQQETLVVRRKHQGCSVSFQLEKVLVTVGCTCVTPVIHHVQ

In the case of `CCn1nccc1C(=O)N[C@H](c1cn2nc(C[C@H]3C[C@@H](C(F)(F)F)CNC3=O)c(C3CCCCN3CCOC)nc2n1)C1CCC(F)(F)CC1` (stereo partly drawn) [Compound 369, N-((1S)-(4,4-difluorocyclohexyl)(3-(1-(2-methoxyethyl)piperidin-2-yl)-2-(((3R,5R)-2-oxo-5-(trifluoromethyl)piperidin-3-yl)methyl)imidazo[1,2-b][1,2,4]triazin-6-yl)methyl)-1-ethyl-1H-pyrazole-5-carboxamide], the IC50 (IL-17A/A) is reported as 100 to 1000 nM and the IC50 (IL-17A/F) is reported as > 1000 nM.
In the case of `CCn1nccc1C(=O)N[C@H](c1cn2nc(C[C@H]3C[C@@H](C(F)(F)F)CNC3=O)c(C3CCN(CCOC)C3)nc2n1)C1CCC(F)(F)CC1` (stereo partly drawn) [Compound 370, N-((1S)-(4,4-difluorocyclohexyl)(3-(1-(2-methoxyethyl)pyrrolidin-3-yl)-2-(((3R,5R)-2-oxo-5-(trifluoromethyl)piperidin-3-yl)methyl)imidazo[1,2-b][1,2,4]triazin-6-yl)methyl)-1-ethyl-1H-pyrazole-5-carboxamide], the IC50 (IL-17A/A) is reported as 100 to 1000 nM and the IC50 (IL-17A/F) is reported as > 1000 nM.
With `CCn1nccc1C(=O)N[C@H](c1cn2nc(C[C@H]3C[C@@H](C(F)(F)F)CNC3=O)c(CN3CCC(F)CC3)nc2n1)C1CCC(F)(F)CC1` [Compound 371, N—((S)-(4,4-difluorocyclohexyl)(3-((4-fluoropiperidin-1-yl)methyl)-2-(((3R,5R)-2-oxo-5-(trifluoromethyl)piperidin-3-yl)methyl)imidazo[1,2-b][1,2,4]triazin-6-yl)methyl)-1-ethyl-1H-pyrazole-5-carboxamide] the IC50 (IL-17A/A) was < 100 nM and the IC50 (IL-17A/F) was 100 to 1000 nM.
For `O=C(N[C@H](c1cn2nc(C[C@H]3C[C@@H](C(F)(F)F)CNC3=O)c(C3CCOCC3)nc2n1)C1CCC(F)(F)CC1)c1nonc1OCC(F)(F)F` [Compound 372, N—((S)-(4,4-difluorocyclohexyl)(2-(((3R,5R)-2-oxo-5-(trifluoromethyl)piperidin-3-yl)methyl)-3-(tetrahydro-2H-pyran-4-yl)imidazo[1,2-b][1,2,4]triazin-6-yl)methyl)-4-(2,2,2-trifluoroethoxy)-1,2,5-oxadiazole-3-carboxamide], the IC50 (IL-17A/A) was < 100 nM and the IC50 (IL-17A/F) was 100 to 1000 nM.
With `O=C(N[C@H](c1cn2nc(C[C@H]3C[C@@H](C(F)(F)F)CNC3=O)c(C3CCOCC3)nc2n1)C1CCC(F)(F)CC1)c1nonc1CN1CC(F)C1` [Compound 373, N—((S)-(4,4-difluorocyclohexyl)(2-(((3R,5R)-2-oxo-5-(trifluoromethyl)piperidin-3-yl)methyl)-3-(tetrahydro-2H-pyran-4-yl)imidazo[1,2-b][1,2,4]triazin-6-yl)methyl)-4-((3-fluoroazetidin-1-yl)methyl)-1,2,5-oxadiazole-3-carboxamide] the IC50 (IL-17A/A) was < 100 nM and the IC50 (IL-17A/F) was 100 to 1000 nM.
`CCn1nccc1C(=O)N[C@H](c1cn2nc(C[C@H]3C[C@@H](C(F)(F)F)CNC3=O)c(CN3CCOCC3)nc2n1)[C@H]1CC[C@H](C)CC1` [Compound 374, 1-ethyl-N—((S)-((1r,4S)-4-methylcyclohexyl)(3-(morpholinomethyl)-2-(((3R,5R)-2-oxo-5-(trifluoromethyl)piperidin-3-yl)methyl)imidazo[1,2-b][1,2,4]triazin-6-yl)methyl)-1H-pyrazole-5-carboxamide] was tested, and the IC50 (IL-17A/A) was < 100 nM and the IC50 (IL-17A/F) was 100 to 1000 nM.
With `CCn1nccc1C(=O)N[C@H](c1cn2nc(C[C@H]3C[C@@H](C(F)(F)F)CNC3=O)c(CN3CCC(F)(F)C3)nc2n1)[C@H]1CC[C@H](C)CC1` [Compound 375, N—((S)-(3-((3,3-difluoropyrrolidin-1-yl)methyl)-2-(((3R,5R)-2-oxo-5-(trifluoromethyl)piperidin-3-yl)methyl)imidazo[1,2-b][1,2,4]triazin-6-yl)((1r,4S)-4-methylcyclohexyl)methyl)-1-ethyl-1H-pyrazole-5-carboxamide] the IC50 (IL-17A/A) was < 100 nM and the IC50 (IL-17A/F) was 100 to 1000 nM.
For `Cn1nccc1C(=O)N[C@H](c1cn2nc(C[C@H]3C[C@@H](C(F)(F)F)CNC3=O)c(CC3COC3)nc2n1)C1CCCCCC1` [Compound 377, N—((S)-cycloheptyl(3-(oxetan-3-ylmethyl)-2-(((3R,5R)-2-oxo-5-(trifluoromethyl)piperidin-3-yl)methyl)imidazo[1,2-b][1,2,4]triazin-6-yl)methyl)-1-methyl-1H-pyrazole-5-carboxamide], the IC50 (IL-17A/A) was < 100 nM and the IC50 (IL-17A/F) was 100 to 1000 nM.
With `O=C(N[C@H](c1cn2nc(C[C@H]3C[C@@H](C(F)(F)F)CNC3=O)c(C3CCOCC3)nc2n1)C1CCC(F)(F)CC1)c1ccnn1CCN1CCOCC1` [Compound 378, N—((S)-(4,4-difluorocyclohexyl)(2-(((3R,5R)-2-oxo-5-(trifluoromethyl)piperidin-3-yl)methyl)-3-(tetrahydro-2H-pyran-4-yl)imidazo[1,2-b][1,2,4]triazin-6-yl)methyl)-1-(2-morpholinoethyl)-1H-pyrazole-5-carboxamide] the IC50 (IL-17A/A) was < 100 nM and the IC50 (IL-17A/F) was > 1000 nM.
With `CCn1nccc1C(=O)N[C@H](c1cn2nc(C[C@H]3CCCNC3=O)c(C3CCOCC3)nc2n1)C1CCC(F)(F)CC1` [Compound 379] the IC50 (IL-17A/A) was < 100 nM and the IC50 (IL-17A/F) was > 1000 nM.
In the case of `CCn1nccc1C(=O)N[C@H](c1cn2nc(C[C@@H]3CCCNC3=O)c(C3CCOCC3)nc2n1)C1CCC(F)(F)CC1` [Compound 380], the IC50 (IL-17A/A) is reported as < 100 nM and the IC50 (IL-17A/F) is reported as > 1000 nM.
In the case of `CCn1ncnc1C(=O)N[C@H](c1cn2nc(C[C@H]3C[C@@H](C(F)(F)F)CNC3=O)c(C3CCOCC3)nc2n1)[C@H]1CC[C@H](C)CC1` [Compound 383, 1-ethyl-N—((S)-((1r,4S)-4-methylcyclohexyl)(2-(((3R,5R)-2-oxo-5-(trifluoromethyl)piperidin-3-yl)methyl)-3-(tetrahydro-2H-pyran-4-yl)imidazo[1,2-b][1,2,4]triazin-6-yl)methyl)-1H-1,2,4-triazole-5-carboxamide], the IC50 (IL-17A/A) is reported as < 100 nM and the IC50 (IL-17A/F) is reported as 100 to 1000 nM.
With `CCn1ncnc1C(=O)N[C@H](c1cn2nc(C[C@H]3C[C@@H](C(F)(F)F)CNC3=O)c(C3CCOCC3)nc2n1)C(C1CC1)C1CC1` [Compound 385, N—((S)-2,2-dicyclopropyl-1-(2-(((3R,5R)-2-oxo-5-(trifluoromethyl)piperidin-3-yl)methyl)-3-(tetrahydro-2H-pyran-4-yl)imidazo[1,2-b][1,2,4]triazin-6-yl)ethyl)-1-ethyl-1H-1,2,4-triazole-5-carboxamide] the IC50 (IL-17A/A) was < 100 nM and the IC50 (IL-17A/F) was > 1000 nM.
For `CCn1ncnc1C(=O)N[C@H](c1cn2nc(C[C@H]3C[C@@H](C(F)(F)F)CNC3=O)c(C(C)C)nc2n1)C1CCC(F)(F)CC1` [Compound 386, N—((S)-(4,4-difluorocyclohexyl)(3-isopropyl-2-(((3R,5R)-2-oxo-5-(trifluoromethyl)piperidin-3-yl)methyl)imidazo[1,2-b][1,2,4]triazin-6-yl)methyl)-1-ethyl-1H-1,2,4-triazole-5-carboxamide], the IC50 (IL-17A/A) was < 100 nM and the IC50 (IL-17A/F) was > 1000 nM.
With `CCn1ncnc1C(=O)N[C@H](c1cn2nc(C[C@H]3C[C@H](C)CNC3=O)c(C3CCOCC3)nc2n1)C1CCC(F)(F)CC1` [Compound 387] the IC50 (IL-17A/A) was 100 to 1000 nM and the IC50 (IL-17A/F) was > 1000 nM.
In the case of `CCn1ncnc1C(=O)N[C@H](c1cn2nc(C[C@@H]3C[C@H](C)CNC3=O)c(C3CCOCC3)nc2n1)C1CCC(F)(F)CC1` [Compound 388], the IC50 (IL-17A/A) is reported as < 100 nM and the IC50 (IL-17A/F) is reported as > 1000 nM.
With `CCn1nccc1C(=O)N[C@H](c1cn2nc(C[C@H]3C[C@@H](C)CNC3=O)c(C(C)C)nc2n1)C1CCC(F)(F)CC1` [Compound 389] the IC50 (IL-17A/A) was 100 to 1000 nM and the IC50 (IL-17A/F) was > 1000 nM.
With `CCn1nccc1C(=O)N[C@H](c1cn2nc(C[C@@H]3C[C@@H](C)CNC3=O)c(C(C)C)nc2n1)C1CCC(F)(F)CC1` [Compound 390] the IC50 (IL-17A/A) was < 100 nM and the IC50 (IL-17A/F) was 100 to 1000 nM.
In the case of `CCn1nccc1C(=O)N[C@H](c1cn2nc(C[C@H]3C[C@H](C)CNC3=O)c(C(C)C)nc2n1)C1CCC(F)(F)CC1` [Compound 391], the IC50 (IL-17A/A) is reported as < 100 nM and the IC50 (IL-17A/F) is reported as > 1000 nM.
For `CCn1nccc1C(=O)N[C@H](c1cn2nc(C[C@@H]3C[C@H](C)CNC3=O)c(C(C)C)nc2n1)C1CCC(F)(F)CC1` [Compound 392], the IC50 (IL-17A/A) was < 100 nM and the IC50 (IL-17A/F) was > 1000 nM.
In the case of `CCc1nonc1C(=O)N[C@H](c1cn2nc(C[C@H]3C[C@@H](C)CNC3=O)c(C3CCOCC3)nc2n1)C1CCC(F)(F)CC1` [Compound 393], the IC50 (IL-17A/A) is reported as 100 to 1000 nM and the IC50 (IL-17A/F) is reported as > 1000 nM.
In the case of `CCc1nonc1C(=O)N[C@H](c1cn2nc(C[C@@H]3C[C@@H](C)CNC3=O)c(C3CCOCC3)nc2n1)C1CCC(F)(F)CC1` [Compound 394], the IC50 (IL-17A/A) is reported as < 100 nM and the IC50 (IL-17A/F) is reported as > 1000 nM.
In the case of `CCc1nonc1C(=O)N[C@H](c1cn2nc(C[C@H]3C[C@H](C)CNC3=O)c(C3CCOCC3)nc2n1)C1CCC(F)(F)CC1` [Compound 395], the IC50 (IL-17A/A) is reported as < 100 nM and the IC50 (IL-17A/F) is reported as > 1000 nM.
With `CCc1nonc1C(=O)N[C@H](c1cn2nc(C[C@@H]3C[C@H](C)CNC3=O)c(C3CCOCC3)nc2n1)C1CCC(F)(F)CC1` [Compound 396] the IC50 (IL-17A/A) was < 100 nM and the IC50 (IL-17A/F) was > 1000 nM.
For `Cc1nonc1C(=O)N[C@H](c1cn2nc(C[C@@H]3C[C@@H](C)CNC3=O)c(C3CCOCC3)nc2n1)C1CCC(F)(F)CC1` [Compound 397], the IC50 (IL-17A/A) was < 100 nM and the IC50 (IL-17A/F) was > 1000 nM.
In the case of `Cc1nonc1C(=O)N[C@H](c1cn2nc(C[C@H]3C[C@H](C)CNC3=O)c(C3CCOCC3)nc2n1)C1CCC(F)(F)CC1` [Compound 398], the IC50 (IL-17A/A) is reported as 100 to 1000 nM and the IC50 (IL-17A/F) is reported as > 1000 nM.
`Cc1nonc1C(=O)N[C@H](c1cn2nc(C[C@@H]3C[C@H](C)CNC3=O)c(C3CCOCC3)nc2n1)C1CCC(F)(F)CC1` [Compound 399] was tested, and the IC50 (IL-17A/A) was < 100 nM and the IC50 (IL-17A/F) was > 1000 nM.
`Cn1nccc1C(=O)N[C@H](c1cn2nc(C[C@H]3C[C@@H](C(F)(F)F)CNC3=O)c(C3CCOCC3)nc2n1)C1CCCCC1` [Compound 405] was tested, and the IC50 (IL-17A/A) was < 100 nM and the IC50 (IL-17A/F) was 100 to 1000 nM.
